Series [1] concerns dextran sulfate sodium (DSS)-induced colitis. Nature of the series: DSS-induced colitis in mice: body weight, DAI score, colon density (Examples 1, 3). It is filed as in vivo, C57BL/6J mice. The conditions noted are these: for Colon density: experimental endpoint. Here is the method:
8-10 week old female C57BL/6J mice purchased from Charles River Laboratories were used. The mice were housed in a room at constant temperature (20+2° C.) (5 mice per cage) with a 12-hour light-dark cycle. All protocols were approved by the Institutional Animal Care and Use Committee of WuXi AppTec. These mice were adapted to the housing conditions at the animal experiment center of WuXi AppTec for at least three days prior to the experiment. […] At the experimental endpoint (see hereinafter), mice were euthanized and endpoint samples were obtained. Mice in the normal group were not given 3% DSS aqueous solution to induce colitis and were free to drink blank water. […] The animal body weight and DAI score were assessed under double-blind conditions, that is, the researchers collected the body weight data of mice and observed and scored the stool characteristics and blood stools every day, without knowing the group and dosing regimen. The DAI score was the sum of the weight loss score, stool score and bleeding score. […] The data were analyzed by analysis of variance, specifically by using the following process: using Graph Pad Prism 6.0 software to carry out post-hoc Dunnett's multiple comparison test. […] Data were expressed as mean±S.E.M. The experimental endpoint was 24 hours after administration on Day 8 for the positive drug control group and the Test group 1 #to Test group 7 #of Example 1; the experimental endpoint of the normal group and the solvent group was the same as that of the positive drug control group and Test group 1 #to Test group 7 #.

Series [2] deals with norepinephrine level. The conditions noted are these: cited from earlier work.
The subject of series [3] is systolic and diastolic blood pressure. The conditions noted are these: 200 mg, phase II clinical study, cited from earlier work.
Series [4] concerns dextran sulfate sodium (DSS)-induced colitis. Description: DSS-induced colitis in mice, 3.1% DSS: body weight change and DAI (Example 11). It is filed as in vivo, C57BL/6 mice. The conditions noted are these: 100 mg/kg, qd. The text has this:
The experimental mice were housed in an SPF grade animal room for three days for adaptation, and randomly divided into 7 groups (6 model groups and 1 control group) of 10 mice in each group. Dosing of mice started on Day 0 and ended on Day 7.
The mouse enteritis model of this Example was established by DSS induction: mice in the model group were provided with a 3.1% DSS (dextran sulfate sodium, molecular weight 36,000-50,000) aqueous solution from Day 0 to Day 7, and the DSS aqueous solution was replaced with freshly prepared solution every day to prevent degradation. Mice in the normal control group were provided with normal water. The experimental period was 9 days, and the mice were euthanized and samples were collected at the experimental endpoint.
The DAI score was assessed daily. The DAI score consisted of 3 parts: body weight change, stool characteristics, and hematochezia (or occult blood) score, and the specific scoring criteria were as shown in Table 49. The DAI scoring of all mice was done by the same staff throughout the experiment.
Mice were euthanized at the experimental endpoint. The colon of mice was dissected, and photograph was taken, the length was measured, and the contents were removed before weighing.
The data were expressed as mean±standard error (X±s). Body weight change and disease activity score were statistically analyzed by two-way ANOVA and comparison between groups were performed by Dunnett's test. Other data were statistically analyzed by one-way ANOVA and comparison between groups were performed by Dunnett's test. All analyses were performed using GraphPad Prism software. * P<0.05, ** P<0.01, *** P<0.005, **** P<0.0001 vs. solvent group.

Series [5] deals with bleomycin-induced skin fibrosis. Nature of the series: Bleomycin-induced skin fibrosis in mice: skin histopathology (dermal thickness, capillary density score, inflammatory cell infiltration score). Format: in vivo, male C57BL/6 mice. To be noted: 50 mg/kg PO BID, 28 days. On the procedure: The skin tissue of the lesioned skin was subjected to dehydration, embedding and sectioning according to the pathology SOP, and the tissue was stained by HE and Masson staining. Histopathological analysis was performed according to the following methods:
Masson-stained sections were panoramically scanned by using Nanozomer S210 and the scanned images were subjected to quantitative analysis using Visiopharm VIS6.0 software. The degree of fibrosis was currently represented by the dermal thickness after Masson staining.
The fields of observation was selected in the dermis layer of the lesioned area (the number of fields selected was determined according to the size of the lesioned area) and scored according to the area occupied by capillaries in the area: • 0: No capillary formed • 1: The proportion of capillaries formed was less than 25%; • 2: The proportion of capillaries formed was 25-50%; • 3: The proportion of capillaries formed was 50-75%; • 4: The proportion of capillaries formed was greater than 75%. 3.8.3 Inflammatory cell infiltration score of dermis layer
The fields of observation was selected in the dermis layer of the lesioned area (the number of fields selected was determined according to the size of the lesioned area) and scored according to the degree of inflammatory cell infiltration: • 0: No inflammatory cell infiltration: • 1: A small amount of focal inflammatory cell infiltration; • 2: Scattered diffuse inflammatory cell infiltration: • 3: A large amount of diffuse inflammatory cell infiltration; • 4: A large amount of agglomerated inflammatory cell infiltration.

Series [6] concerns imiquimod (IMQ)-induced psoriasis. Description: Imiquimod (IMQ)-induced psoriasis in mice: erythema, scales, thickness, total score, AUC (Example 8). Format: in vivo, Balb/c mice. Set-up: key to erythema score / scales score / thickness score: 0 = none, 1 = mild, 2 = moderate, 3 = obvious/severe; key to total score of erythema + scales + thickness: sum of three 0-3 scores (erythema + scales + thickening), 0-9. To be noted: for erythema score / scales score: BID × 2 days; for thickness score / total score of erythema + scales + thickness: positive control group. On the procedure:
All mice were shaved with a pet shaver to get an area of 2×3 cm on the back one day before the start of the experiment.
65 animals were randomly divided into groups according to body weight, and the dosing regimen was as follows.
Imiquimod (IMQ) cream: 62.5 mg of IMQ cream for each mouse in G2 to G7; Dexamethasone (DEX) ointment: 70 mg of ointment for each mouse in G4;
Tofacitinib: Tofacitinib was dissolved in dimethyl sulfoxide to 5 mg/mL, and 50 μL was added to IMQ cream for daily treatment.
Mice in Groups 2 to 7 received daily topical doses of 62.5 mg of IMQ cream on their shaved back from Day 0 to Day 7.
Dosing of the test compounds and reference substance was carried out according to Table 29 for 7 consecutive days.
To assess the severity of inflammation of skin on the back, the skin on the back was scored according to Table 30. Erythema, scales and thickening were scored independently on a scale of 0 to 3, 0, none; 1. mild; 2. moderate; 3. obvious/severe.
The inhibition rate was calculated according to the following formula: Inhibition rate=[AUC (solvent)−AUC (treatment)]/AUC (solvent)×100%. Wherein, solvent referred to the solvent group corresponding to the route of administration.

[7] abbreviates: rats with spontaneous hypertension.
The mark [8] stands for this setting: Day 0, 12.5 mg/kg topical QD × 5 days.
Where [9] appears, read: Day 1, 12.5 mg/kg topical QD × 5 days.
[10] abbreviates: Day 2, 12.5 mg/kg topical QD × 5 days.
[11] abbreviates: Day 3, 12.5 mg/kg topical QD × 5 days.
Setting [12] is: Day 4, 12.5 mg/kg topical QD × 5 days.
Where [13] appears, read: Day 5, 12.5 mg/kg topical QD × 5 days.
[14] abbreviates: Day 6, 12.5 mg/kg topical QD × 5 days.
Setting [15] is: Day 7, 12.5 mg/kg topical QD × 5 days.

Take `NCCc1c[nH]c(=S)n1[C@H]1COc2c(F)cc(F)cc2C1` [Etamicastat]: in series [1] (10 mg/kg PO QD × 8 days), the “Body weight on Day 7, g” value amounted to 19.18 g; the “Body weight on Day 7/initial body weight, %” value is recorded as 91.92%; the “Body weight on Day 8, g” value is 18.20 g; the “Body weight on Day 8/initial body weight, %” value is recorded as 87.27%. In series [1] (10 mg/kg PO QD × 8 days), the “DAI score on Day 8” value was found to be 6.20 and the “Colon density” value amounted to 32.24 mg/cm. Moreover, in series [1] (30 mg/kg PO QD × 8 days), the “Body weight on Day 7, g” value came to 19.48 g; the “Body weight on Day 7/initial body weight, %” value was found to be 92.19%; the “Body weight on Day 8, g” value is on record as 18.89 g; the “Body weight on Day 8/initial body weight, %” value amounted to 89.13%. In series [1] (30 mg/kg PO QD × 8 days), the “DAI score on Day 8” value is 6.56 and the “Colon density” value amounted to 34.23 mg/cm. Further, in series [1] (100 mg/kg PO QD × 8 days), the “Body weight on Day 7, g” value turned out to be 20.08 g; the “Body weight on Day 8, g” value came out at 19.19 g; the “Body weight on Day 8/initial body weight, %” value was 91.63%; the “DAI score on Day 8” value is given as 5.00. Moreover, the “severity of DSS-induced colitis and disease activity” value in series [1] (Nepicastat 30, Etamicastat 100, Zamicastat 100 mg/kg PO QD × 8 days (Test groups 1#, 4#, 7#) vs solvent group) was “ameliorated the severity of DSS-induced colitis and reduced disease activity”. Moreover, in series [2] (compared with Nepicastat), the brain-blood-barrier penetration result is listed as “lower levels of brain-blood-barrier penetration”. In addition, in series [2] (setting [7]), the “effect on brain tissue (norepinephrine level)” value is “no effect on brain tissue” and the “norepinephrine level in peripheral sympathetic innervation tissues” value is given as “reduce the norepinephrine level in peripheral sympathetic innervation tissues”. Moreover, the tolerance and safety result in series [3] (10 days of treatment) was “good tolerance and safety”. Moreover, in series [3] (after 10 days of treatment), the “systolic and diastolic blood pressure” value was “reduced systolic and diastolic blood pressure in a dose-dependent manner”.

For the compound `O=C(O)/C=C/C(=O)O` [Fumaric acid], in series [4], the “symptoms caused by DSS-induced colitis (diarrhea, hematochezia)” value is “slightly ameliorate the symptoms of diarrhea and hematochezia”. Besides, the “DSS-induced body weight loss” value in series [4] (vs solvent group) is on record as “showed a trend of alleviating DSS-induced body weight loss”. For the same compound, the “disease activity score (DAI)” value in series [4] (vs solvent group, relatively obvious on Day 4 and Day 5) is given as “slightly improved”.

On to `COC(=O)c1ccc2c(c1)NC(=O)/C2=C(\Nc1ccc(N(C)C(=O)CN2CCN(C)CC2)cc1)c1ccccc1` [Nintedanib], for which, in series [5], the “inflammatory cell infiltration of the lesioned skin” value is listed as “visibly reduce” and the subdermal capillary hyperplasia entry is “visibly reduce”.

`C[C@@H]1CCN(C(=O)CC#N)C[C@@H]1N(C)c1ncnc2[nH]ccc12` [Tofacitinib]: the “efficacy on clinical score” value in series [6] (12.5 mg/kg topical QD × 5 days, then BID × 2 days) is recorded as “showed efficacy after doubling the dose”. Also, the erythema score is 0 in series [6] (setting [8]); 0 in series [6] (setting [9]); 1.4 in series [6] (setting [10]); 1.9 in series [6] (setting [11]); 2.2 in series [6] (setting [12]); 2 in series [6] (setting [13]). Besides, the erythema score is recorded as 1.8 in series [6] (setting [14]) and 1.7 in series [6] (setting [15]). The scales score was 0 in series [6] (setting [8]); 0 in series [6] (setting [9]); 0 in series [6] (setting [10]); 0.4 in series [6] (setting [11]); 0.7 in series [6] (setting [12]); 1.4 in series [6] (setting [13]). Moreover, the results for the scales score in series [6] (setting [14]) and in series [6] (setting [15]) were 1.3 and 1.6, respectively. Further, the thickness score in series [6] (Day 0) is listed as 0; in series [6] (Day 1), 0.8; in series [6] (Day 2) it was 1.4; in series [6] (Day 3), 2.2; in series [6] (Day 4), 2; in series [6] (Day 5), 2.2. Moreover, the results for the thickness score in series [6] (Day 6) and in series [6] (Day 7) were 2 and 1.9, respectively. Also, the “total score of erythema + scales + thickness” value stood at 0 in series [6] (Day 0); 0.8 in series [6] (Day 1); 2.8 in series [6] (Day 2); 4.5 in series [6] (Day 3); 4.9 in series [6] (Day 4); 5.6 in series [6] (Day 5). In addition, the “total score of erythema + scales + thickness” value in series [6] (Day 6) was 5.1; in series [6] (Day 7), 5.2.

The values above are taken from patent US20250134870A1, “PATHWAY MODULATOR, PHARMACEUTICAL COMPOSITION HAVING SAME, USE THEREOF, AND THERAPEUTIC METHOD USING SAME” (Jiangsu Yahong Meditech Co., Ltd., priority 2021, published 2025).
